From ChEMBL document CHEMBL1142467, “A novel monoacylglycerol lipase inhibitor with analgesic and anti-inflammatory activity” (Bioorg Med Chem Lett, 2008)
Active and inactive are the calls of the source. No cut-off for these calls is given here.

Legend:
[1] = target: T1, Fatty-acid amide hydrolase 1 (Rattus norvegicus) (UniProt P97612); assay: Inhibition of Sprague-Dawley rat FAAH at 100 uM
T1 sequence (whole entry): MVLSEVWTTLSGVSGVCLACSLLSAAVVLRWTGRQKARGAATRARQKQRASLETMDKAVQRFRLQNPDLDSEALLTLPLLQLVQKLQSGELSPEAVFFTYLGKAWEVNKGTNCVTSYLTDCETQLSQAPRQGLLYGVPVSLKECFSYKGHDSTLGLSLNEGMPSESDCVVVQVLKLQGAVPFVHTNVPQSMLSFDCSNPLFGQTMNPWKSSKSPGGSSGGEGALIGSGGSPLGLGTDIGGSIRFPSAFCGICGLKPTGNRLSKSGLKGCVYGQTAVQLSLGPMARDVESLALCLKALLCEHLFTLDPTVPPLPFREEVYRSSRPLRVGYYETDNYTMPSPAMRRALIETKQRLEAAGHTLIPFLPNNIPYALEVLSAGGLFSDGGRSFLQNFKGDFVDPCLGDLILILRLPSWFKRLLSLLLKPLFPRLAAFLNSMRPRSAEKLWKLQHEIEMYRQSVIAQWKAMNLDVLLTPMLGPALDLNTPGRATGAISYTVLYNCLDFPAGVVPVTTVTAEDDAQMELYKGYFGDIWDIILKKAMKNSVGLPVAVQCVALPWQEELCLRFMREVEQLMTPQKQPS

[2] = target: T2, Monoglyceride lipase (Rattus norvegicus) (UniProt Q8R431); assay: Inhibition of Sprague-Dawley rat MGL at 100 uM
T2 sequence (whole entry): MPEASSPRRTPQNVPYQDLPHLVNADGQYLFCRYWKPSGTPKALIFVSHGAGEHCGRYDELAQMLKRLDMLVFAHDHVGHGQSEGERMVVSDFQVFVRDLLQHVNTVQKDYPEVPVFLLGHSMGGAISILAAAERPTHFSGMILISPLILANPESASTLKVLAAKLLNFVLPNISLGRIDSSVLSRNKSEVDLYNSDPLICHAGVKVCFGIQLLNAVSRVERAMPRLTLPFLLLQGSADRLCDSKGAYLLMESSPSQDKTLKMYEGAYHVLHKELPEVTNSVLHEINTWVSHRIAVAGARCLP

Monoglyceride lipase = target: T3, Monoglyceride lipase (Rattus norvegicus, UniProt Q8R431); assay: Inhibition of Sprague-Dawley rat MGL
T3 sequence (Q8R431 whole entry): T2 sequence (whole entry)

Rattus norvegicus [3] = assay: Analgesic activity in rat assessed as inhibition of acetic acid-induced writhing responses at 3.6 mg/kg, ip; assay type: functional, organism-based; set-up: dose 3.6 mg/kg
Rattus norvegicus [4] = assay: Antiinflammatory activity against carrageenan-induced foot paw edema in rat; assay type: functional
Rattus norvegicus [5] = assay: Analgesic activity in rat assessed as inhibition of acetic acid-induced writhing responses at 36 mg/kg, ip; assay type: functional, organism-based; set-up: dose 36 mg/kg
Rattus norvegicus [6] = assay: Antiinflammatory activity against carrageenan-induced foot paw edema in rat at 0.01 mmol/kg, ip; assay type: functional

| SMILES | inhibition [1] [%] | inhibition [2] [%] | Ki (Monoglyceride lipase) [µM] | Activity (Rattus norvegicus [3]) | ED50 (Rattus norvegicus [4]) [µmol/kg] | Activity (Rattus norvegicus [5]) | inhibition in vivo at 10 µmol/kg (Rattus norvegicus [6]) [%] |
| --- | --- | --- | --- | --- | --- | --- | --- |
| NC[C@@H](N)CCCCc1ccccc1 | 0 | 0 | – | – | – | – | – |
| CCCCCCCC/C=C\CCCCCC[C@H](N)CN | 4.9 | 49.9 | 21.8 | Active | 10 | – | – |
| CCCCCCCCCCCCCC[C@H](N)CO | 33.6 | 31.5 | – | – | – | – | – |
| CCCCCCOc1ccc(CCCC[C@H](N)CN)cc1 | 30.9 | 25.9 | – | – | – | – | – |
| CCCCCCCCCCCCCCC(=O)C(=O)NCCO | 23.8 | 27.5 | – | – | – | – | – |
| COc1ccc2c(c1)c(CC(=O)O)c(C)n2C(=O)c1ccc(Cl)cc1 [INDOMETHACIN] | – | – | – | – | – | – | 47 |

Second part, led by results:

| inhibition [1] [%] | inhibition [2] [%] | Ki (Monoglyceride lipase) [µM] | SMILES | Activity (Rattus norvegicus [3]) | ED50 (Rattus norvegicus [4]) [µmol/kg] | Activity (Rattus norvegicus [5]) | inhibition in vivo at 10 µmol/kg (Rattus norvegicus [6]) [%] |
| --- | --- | --- | --- | --- | --- | --- | --- |
| 24 | 0 | – | CCCCCCCC/C=C\CCCCCC[C@@H](N)C(N)=O | – | – | – | – |
| 31.2 | 30.3 | 58.7 | CCCCCCCCCCCCCCC(N)CN (stereo not given) | – | – | – | – |
| 25.9 | 42.2 | 39 | CCCCCCCC/C=C\CCCCCC[C@@H](N)CN | – | – | Active | – |
| 31.3 | 30 | – | CCCCCCCCCCCCCC[C@@H](N)CO | – | – | – | – |
